Results on 4 compounds are retold here after patent US20090306147A1, “BIOLOGICAL EFFICACY OF AGROCHEMICAL COMPOSITIONS ON APPLICATION IN THE GROWTH SUBSTRATE SUITABLE FORMULATIONS AND USE THEREOF” (priority 2006, published 2009).

Type in all cases: in vivo
Data set [1] deals with green peach aphid (Myzus persicae). Kind of data set: Watering test on cabbage plant, green peach aphid (Use Example 5). The note with it: infection 3 d after application, 7 d after infection. How it is done:
After sowing, a cabbage plant (Brassica oleracea) is grown for about 10 days in a 1 litre vessel. The plant is then watered with 60 ml of a solution having the stated concentration of insecticidally active compound and adjuvant and, after the stated period of time, infected with the green peach aphid (Myzus persicae). After the desired period of time, the kill in % is determined. 100% means that all aphids have been killed; 0% means that none of the aphids have been killed. The same test without added adjuvant served as a control.

Data set [2] shares this test system. Briefly: Watering test on bell-pepper plant, green peach aphid (Use Example 3). The method, then: After sowing, a bell-pepper plant is grown for about 30 days in a 1 litre vessel. The plant is then watered with 60 ml of a solution having the stated concentration of insecticidally active compound and adjuvant and, after the stated period of time, infected with the green peach aphid (Myzus persicae). After the desired period of time, the kill in % is determined. 100% means that all aphids have been killed; 0% means that none of the aphids have been killed. The same test without added adjuvant served as a control.

The test system of data set [3] is diamond-back moth (Plutella xylostella). Kind of data set: Watering test on cabbage plant, diamond-back moth caterpillars (Use Example 4). The settings on record: infection 1 d after application, 7 d after infection. How it is done: After sowing, a cabbage plant (Brassica oleracea) is grown for about 14 days in a 1 litre vessel. The plant is then watered with 60 ml of a solution having the stated concentration of insecticidally active compound and adjuvant and, after the stated period of time, infected with the caterpillars of the diamond-back moth (Plutella xylostella). After the desired period of time, the kill in % is determined. 100% means that all caterpillars have been killed; 0% means that none of the caterpillars have been killed. The same test without added adjuvant served as a control.

On to `O=[N+]([O-])NC1=NCCN1Cc1ccc(Cl)nc1` [(II-7), imidacloprid], for which the Mortality entry was “B (from 26 to 50%)” in data set [1] (0.00195 mg/l of soil, adjuvant (I-2) 1000 mg/l); “A (from 0 to 25%)” in data set [1] (0.00195 mg/l of soil, no adjuvant); “C (from 51 to 75%)” in data set [1] (0.0039 mg/l of soil, adjuvant (I-2) 1000 mg/l); “B (from 26 to 50%)” in data set [1] (0.0039 mg/l of soil, no adjuvant); “D (from 76 to 100)” in data set [2] (0.0039 mg/l of soil, adjuvant (I-2) 1000 mg/l, infection 3 d after application, 7 d after infection); “D (from 76 to 100)” in data set [2] (0.0039 mg/l of soil, adjuvant (I-3) 2000 mg/l watering solution, infection 3 d after application, 4 d after infection). Also, the Mortality result in data set [2] (0.0039 mg/l of soil, adjuvant (I-3) 2000 mg/l, infection 3 d after application, 7 d after infection) is “D (from 76 to 100)”; in data set [2] (0.0039 mg/l of soil, adjuvant (I-3) 2000 mg/l, infection 21 d after application, 4 d after infection), “D (from 76 to 100)”; in data set [2] (0.0039 mg/l of soil, adjuvant (I-3) 2000 mg/l, infection 21 d after application, 7 d after infection), “D (from 76 to 100)”; in data set [2] (0.0039 mg/l of soil, adjuvant (I-5) 2000 mg/l watering solution, infection 3 d after application, 4 d after infection) it was “D (from 76 to 100)”; in data set [2] (0.0039 mg/l of soil, adjuvant (I-5) 2000 mg/l, infection 3 d after application, 7 d after infection), “D (from 76 to 100)”; in data set [2] (0.0039 mg/l of soil, adjuvant (I-5) 2000 mg/l, infection 21 d after application, 4 d after infection), “D (from 76 to 100)”. Further, the Mortality result in data set [2] (0.0039 mg/l of soil, adjuvant (I-5) 2000 mg/l, infection 21 d after application, 7 d after infection) was “D (from 76 to 100)”; in data set [2] (0.0039 mg/l of soil, no adjuvant, infection 3 d after application, 4 d after infection), “B (from 26 to 50%)”; in data set [2] (0.0039 mg/l of soil, no adjuvant, infection 3 d after application, 7 d after infection), “C (from 51 to 75%)”; in data set [2] (0.0039 mg/l of soil, no adjuvant, infection 21 d after application, 4 d after infection), “C (from 51 to 75%)”; in data set [2] (0.0039 mg/l of soil, no adjuvant, infection 21 d after application, 7 d after infection), “C (from 51 to 75%)”.
With `CN(Cc1ccc(Cl)nc1)C1=CC(=O)OC1` [(IV-1)], the Mortality entry was “D (from 76 to 100)” in data set [2] (0.0156 mg/l of soil, adjuvant (I-3) 2000 mg/l, infection 13 d after application, 5 d after infection); “D (from 76 to 100)” in data set [2] (0.0156 mg/l of soil, adjuvant (I-3) 2000 mg/l, infection 13 d after application, 7 d after infection); “D (from 76 to 100)” in data set [2] (0.0156 mg/l of soil, adjuvant (I-5) 2000 mg/l, infection 13 d after application, 5 d after infection); “D (from 76 to 100)” in data set [2] (0.0156 mg/l of soil, adjuvant (I-5) 2000 mg/l, infection 13 d after application, 7 d after infection); “C (from 51 to 75%)” in data set [2] (0.0156 mg/l of soil, no adjuvant, infection 13 d after application, 5 d after infection); “C (from 51 to 75%)” in data set [2] (0.0156 mg/l of soil, no adjuvant, infection 13 d after application, 7 d after infection). In addition, the Mortality result in data set [2] (0.0313 mg/l of soil, adjuvant (I-3) 2000 mg/l, infection 7 d after application, 4 d after infection) is listed as “D (from 76 to 100)”; in data set [2] (0.0313 mg/l of soil, adjuvant (I-3) 2000 mg/l, infection 7 d after application, 6 d after infection), “D (from 76 to 100)”; in data set [2] (0.0313 mg/l of soil, adjuvant (I-5) 2000 mg/l, infection 7 d after application, 4 d after infection), “D (from 76 to 100)”; in data set [2] (0.0313 mg/l of soil, adjuvant (I-5) 2000 mg/l, infection 7 d after application, 6 d after infection) it was “D (from 76 to 100)”; in data set [2] (0.0313 mg/l of soil, no adjuvant, infection 7 d after application, 4 d after infection) it was “C (from 51 to 75%)”; in data set [2] (0.0313 mg/l of soil, no adjuvant, infection 7 d after application, 6 d after infection) it was “C (from 51 to 75%)”.
Consider `CCOC(=O)OC1=C(c2cc(C)ccc2C)C(=O)NC12CCC(OC)CC2` (centres unmarked) [(V-3)], for which the Mortality result in data set [2] (2 mg/l of soil, adjuvant (I-5) 1000 mg/l, infection 3 d after application, 7 d after infection) is given as “C (from 51 to 75%)”; in data set [2] (2 mg/l of soil, adjuvant (I-5) 1000 mg/l, infection 5 d after application, 7 d after infection), “C (from 51 to 75%)”; in data set [2] (2 mg/l of soil, no adjuvant, infection 3 d after application, 7 d after infection), “B (from 26 to 50%)”; in data set [2] (2 mg/l of soil, no adjuvant, infection 5 d after application, 7 d after infection) it was “B (from 26 to 50%)”.
For the compound `N#Cc1nn(-c2c(Cl)cc(C(F)(F)F)cc2Cl)c(N)c1[S+]([O-])C(F)(F)F` (centres unmarked) [(VI-1), fipronil], the Mortality entry in data set [3] (1 mg/l of soil, adjuvant (I-3) 1000 mg/l) is “B (from 26 to 50%)”; in data set [3] (1 mg/l of soil, adjuvant (I-5) 1000 mg/l) it was “C (from 51 to 75%)”; in data set [3] (1 mg/l of soil, no adjuvant), “A (from 0 to 25%)”; in data set [3] (5 mg/l of soil, adjuvant (I-3) 1000 mg/l) it was “D (from 76 to 100)”; in data set [3] (5 mg/l of soil, no adjuvant), “C (from 51 to 75%)”.
